In US20030153618A1, “Treatment and prevention of herpes simplex infections” (priority 1999, published 2003):

Experiments:
[1] = test system: HSV, Type II; assay: Direct plaque-forming unit (PFU) count in BSC cells in defined media with set lysine (or derivative):arginine ratio; type: cell-based; details: average of three tests
Method: Absorbed virons were absorbed in susceptible cells in chemically defined media and the number of plaques made were counted. (See Davis, B. D., et al., Microbiology, 2nd Ed., Harper & Row, 1973, Part V, and sources cited therein for procedural details and discussion of the plaque method.)
The cell line chosen was green monkey kidney cells (BSC) that have been passed greater than 41 times. […] The virons were added to a confluent lawn of BSC cells and allowed to absorb at 25° C. for one hour. The unabsorbed virons and the media were removed by washing three times in PBS. […] The control media contained a lysine/arginine ratio of 1:1. The plaques were counted when easily readable. Flasks are done in triplicate.

[2] = test system: Herpes simplex II virus; assay: Back titration plaque assay: PFU counts at stated amounts of compound under test and arginine; type: cell-based, Herpes simplex II virus (BSC cells)
Method: The following experiments were conducted by back titration: Herpes simplex II virus from laboratory stocks was used. BSC cells were grown to confluence in Eagles medium with 15% fetal calf serum, 150 units per milliliter of penicillin and 100 micrograms per milliliter of streptomycin. The cultures were inoculated with 500 PFU of HS II. The virons were allowed to absorb for one hour at 25° C. The tissue cultures were then washed three times with sterile PBS to remove excess media and non-absorbed virons. The cells were then incubated at 37° C. until four-plus cytopathic effects were observed. The cells were then disrupted by slow freeze-thaw two times. The suspension was then clarified by slow speed centrifugation at 4° C. The supemanant suspension was then added to confluent BSC cultures. After one hour absorption, the cells were washed with PBS twice. The cells were overlaid in defined reagent (in triplicate) Eagles media in noble agar. The cells were then incubated at 37° C. until the plaques were easily counted, usually 40 t 72 hours. the cells were then washed two times with PBS and then fixed with 10% H2CO and a 2% sodium acetate. The cells were then stained in 0.1% crystal violet in ethanol. In the tables which follow the concentration of the compound to be tested, in micrograms per milliliter, is listed across the top of the table and the concentration of arginine in micrograms per milliliter is listed down the left side of the table, the count of plaque-forming units being shown in the matrix.

[3] = Compound Ratio to Arginine 10:1
[4] = Compound Ratio to Arginine 100:1
[5] = compound 10 μg/ml, arginine 0 μg/ml
[6] = compound 10 μg/ml, arginine 2.5 μg/ml
[7] = compound 10 μg/ml, arginine 5.0 μg/ml
[8] = compound 10 μg/ml, arginine 7.5 μg/ml
[9] = compound 10 μg/ml, arginine 10 μg/ml
[10] = compound 10 μg/ml, arginine 15 μg/ml
[11] = compound 10 μg/ml, arginine 20 μg/ml
[12] = compound 10 μg/ml, arginine 25 μg/ml
[13] = compound 25 μg/ml, arginine 0 μg/ml
[14] = compound 25 μg/ml, arginine 2.5 μg/ml
[15] = compound 25 μg/ml, arginine 5.0 μg/ml
[16] = compound 25 μg/ml, arginine 7.5 μg/ml
[17] = compound 25 μg/ml, arginine 10 μg/ml
[18] = compound 25 μg/ml, arginine 15 μg/ml
[19] = compound 25 μg/ml, arginine 20 μg/ml
[20] = compound 25 μg/ml, arginine 25 μg/ml
[21] = compound 50 μg/ml, arginine 0 μg/ml
[22] = compound 50 μg/ml, arginine 2.5 μg/ml
[23] = compound 50 μg/ml, arginine 5.0 μg/ml
[24] = compound 50 μg/ml, arginine 7.5 μg/ml
[25] = compound 50 μg/ml, arginine 10 μg/ml
[26] = compound 50 μg/ml, arginine 15 μg/ml
[27] = compound 50 μg/ml, arginine 20 μg/ml
[28] = compound 50 μg/ml, arginine 25 μg/ml
[29] = compound 100 μg/ml, arginine 0 μg/ml
[30] = compound 100 μg/ml, arginine 2.5 μg/ml
[31] = compound 100 μg/ml, arginine 5.0 μg/ml
[32] = compound 100 μg/ml, arginine 7.5 μg/ml
[33] = compound 100 μg/ml, arginine 10 μg/ml
[34] = compound 100 μg/ml, arginine 15 μg/ml
[35] = compound 100 μg/ml, arginine 20 μg/ml
[36] = compound 100 μg/ml, arginine 25 μg/ml
[37] = compound 200 μg/ml, arginine 0 μg/ml
[38] = compound 200 μg/ml, arginine 2.5 μg/ml
[39] = compound 200 μg/ml, arginine 5.0 μg/ml
[40] = compound 200 μg/ml, arginine 7.5 μg/ml
[41] = compound 200 μg/ml, arginine 10 μg/ml
[42] = compound 200 μg/ml, arginine 15 μg/ml
[43] = compound 200 μg/ml, arginine 20 μg/ml
[44] = compound 200 μg/ml, arginine 25 μg/ml
[45] = compound 300 μg/ml, arginine 0 μg/ml
[46] = compound 300 μg/ml, arginine 2.5 μg/ml
[47] = compound 300 μg/ml, arginine 5.0 μg/ml
[48] = compound 300 μg/ml, arginine 7.5 μg/ml
[49] = compound 300 μg/ml, arginine 10 μg/ml
[50] = compound 300 μg/ml, arginine 15 μg/ml
[51] = compound 300 μg/ml, arginine 20 μg/ml
[52] = compound 300 μg/ml, arginine 25 μg/ml
[53] = compound 400 μg/ml, arginine 0 μg/ml
[54] = compound 400 μg/ml, arginine 2.5 μg/ml
[55] = compound 400 μg/ml, arginine 5.0 μg/ml
[56] = compound 400 μg/ml, arginine 7.5 μg/ml
[57] = compound 400 μg/ml, arginine 10 μg/ml
[58] = compound 400 μg/ml, arginine 15 μg/ml
[59] = compound 400 μg/ml, arginine 20 μg/ml
[60] = compound 400 μg/ml, arginine 25 μg/ml
[61] = compound 500 μg/ml, arginine 0 μg/ml
[62] = compound 500 μg/ml, arginine 2.5 μg/ml
[63] = compound 500 μg/ml, arginine 5.0 μg/ml
[64] = compound 500 μg/ml, arginine 7.5 μg/ml
[65] = compound 500 μg/ml, arginine 10 μg/ml
[66] = compound 500 μg/ml, arginine 15 μg/ml
[67] = compound 500 μg/ml, arginine 20 μg/ml
[68] = compound 500 μg/ml, arginine 25 μg/ml

CC(CCN)CC(N)C(=O)O (stereo not drawn) [4-Methyl lysine]
P.F.U. Count [1, 3]: 541 | P.F.U. Count [1, 4]: 140 | P.F.U. Count [2, 5]: 37 | P.F.U. Count [2, 6]: 110 | P.F.U. Count [2, 7]: 3.7 × 10^3 | P.F.U. Count [2, 8]: 7.2 × 10^4 | P.F.U. Count [2, 9]: 9.6 × 10^4 | P.F.U. Count [2, 10]: 2.3 × 10^5 | P.F.U. Count [2, 11]: 3.1 × 10^5 | P.F.U. Count [2, 12]: 3.3 × 10^5 | P.F.U. Count [2, 13]: 10 | P.F.U. Count [2, 14]: 74 | P.F.U. Count [2, 15]: 310 | P.F.U. Count [2, 16]: 6.6 × 10^4 | P.F.U. Count [2, 17]: 8.7 × 10^4 | P.F.U. Count [2, 18]: 9.6 × 10^4 | P.F.U. Count [2, 19]: 3.3 × 10^5 | P.F.U. Count [2, 20]: 3.4 × 10^5 | P.F.U. Count [2, 21]: 0 | P.F.U. Count [2, 22]: 0 | P.F.U. Count [2, 23]: 671 | P.F.U. Count [2, 24]: 5.0 × 10^4 | P.F.U. Count [2, 25]: 7.0 × 10^4 | P.F.U. Count [2, 26]: 7.9 × 10^4 | P.F.U. Count [2, 27]: 3.1 × 10^5 | P.F.U. Count [2, 28]: 3.6 × 10^5 | P.F.U. Count [2, 29]: 0 | P.F.U. Count [2, 30]: 0 | P.F.U. Count [2, 31]: 371 | P.F.U. Count [2, 32]: 4.2 × 10^4 | P.F.U. Count [2, 33]: 4.0 × 10^7 | P.F.U. Count [2, 34]: 5.0 × 10^4 | P.F.U. Count [2, 35]: 3.6 × 10^5 | P.F.U. Count [2, 36]: 3.1 × 10^5 | P.F.U. Count [2, 37]: 0 | P.F.U. Count [2, 38]: 0 | P.F.U. Count [2, 39]: 191 | P.F.U. Count [2, 40]: 1.0 × 10^4 | P.F.U. Count [2, 41]: 1.8 × 10^4 | P.F.U. Count [2, 42]: 6.8 × 10^4 | P.F.U. Count [2, 43]: 3.2 × 10^5 | P.F.U. Count [2, 44]: 3.0 × 10^5 | P.F.U. Count [2, 45]: 0 | P.F.U. Count [2, 46]: 0 | P.F.U. Count [2, 47]: 169 | P.F.U. Count [2, 48]: 1.1 × 10^7 | P.F.U. Count [2, 49]: 1.9 × 10^4 | P.F.U. Count [2, 50]: 2.7 × 10^4 | P.F.U. Count [2, 51]: 3.1 × 10^5 | P.F.U. Count [2, 52]: 3.3 × 10^5 | P.F.U. Count [2, 53]: 0 | P.F.U. Count [2, 54]: 0 | P.F.U. Count [2, 55]: 671 | P.F.U. Count [2, 56]: 1.9 × 10^3 | P.F.U. Count [2, 57]: 1.7 × 10^4 | P.F.U. Count [2, 58]: 2.0 × 10^4 | P.F.U. Count [2, 59]: 3.0 × 10^5 | P.F.U. Count [2, 60]: 3.3 × 10^5 | P.F.U. Count [2, 61]: 0 | P.F.U. Count [2, 62]: 0 | P.F.U. Count [2, 63]: 239 | P.F.U. Count [2, 64]: 6.7 × 10^3 | P.F.U. Count [2, 65]: 1.3 × 10^4 | P.F.U. Count [2, 66]: 1.4 × 10^4 | P.F.U. Count [2, 67]: 2.4 × 10^5 | P.F.U. Count [2, 68]: 2.9 × 10^5

CC(CN)CC[C@H](N)C(=O)O (stereo partly drawn) [5-Methyl lysine]
P.F.U. Count [1, 3]: 79 | P.F.U. Count [1, 4]: 43 | P.F.U. Count [2, 5]: 30 | P.F.U. Count [2, 6]: 2.7 × 10^3 | P.F.U. Count [2, 7]: 3.7 × 10^4 | P.F.U. Count [2, 8]: 6.0 × 10^4 | P.F.U. Count [2, 9]: 7.9 × 10^4 | P.F.U. Count [2, 10]: 2.0 × 10^5 | P.F.U. Count [2, 11]: 3.0 × 10^5 | P.F.U. Count [2, 12]: 3.0 × 10^5 | P.F.U. Count [2, 13]: 0 | P.F.U. Count [2, 14]: 697 | P.F.U. Count [2, 15]: 1.4 × 10^3 | P.F.U. Count [2, 16]: 4.7 × 10^3 | P.F.U. Count [2, 17]: 6.5 × 10^4 | P.F.U. Count [2, 18]: 1.7 × 10^4 | P.F.U. Count [2, 19]: 3.1 × 10^5 | P.F.U. Count [2, 20]: 3.0 × 10^5 | P.F.U. Count [2, 21]: 0 | P.F.U. Count [2, 22]: 0 | P.F.U. Count [2, 23]: 190 | P.F.U. Count [2, 24]: 190 | P.F.U. Count [2, 25]: 1.7 × 10^3 | P.F.U. Count [2, 26]: 1.3 × 10^3 | P.F.U. Count [2, 27]: 3.0 × 10^5 | P.F.U. Count [2, 28]: 3.0 × 10^5 | P.F.U. Count [2, 29]: 0 | P.F.U. Count [2, 30]: 0 | P.F.U. Count [2, 31]: 69 | P.F.U. Count [2, 32]: 170 | P.F.U. Count [2, 33]: 656 | P.F.U. Count [2, 34]: 710 | P.F.U. Count [2, 35]: 1.2 × 10^5 | P.F.U. Count [2, 36]: 2.4 × 10^5 | P.F.U. Count [2, 37]: 0 | P.F.U. Count [2, 38]: 0 | P.F.U. Count [2, 39]: 0 | P.F.U. Count [2, 40]: 0 | P.F.U. Count [2, 41]: 79 | P.F.U. Count [2, 42]: 63 | P.F.U. Count [2, 43]: 2.7 × 10^5 | P.F.U. Count [2, 44]: 4.1 × 10^5 | P.F.U. Count [2, 45]: 0 | P.F.U. Count [2, 46]: 0 | P.F.U. Count [2, 47]: 0 | P.F.U. Count [2, 48]: 0 | P.F.U. Count [2, 49]: 0 | P.F.U. Count [2, 50]: 1.9 × 10^4 | P.F.U. Count [2, 51]: 5.6 × 10^4 | P.F.U. Count [2, 52]: 6.1 × 10^4 | P.F.U. Count [2, 53]: 0 | P.F.U. Count [2, 54]: 0 | P.F.U. Count [2, 55]: 0 | P.F.U. Count [2, 56]: 0 | P.F.U. Count [2, 57]: 0 | P.F.U. Count [2, 58]: 1.9 × 10^4 | P.F.U. Count [2, 59]: 1.7 × 10^4 | P.F.U. Count [2, 60]: 4.6 × 10^4 | P.F.U. Count [2, 61]: 0 | P.F.U. Count [2, 62]: 0 | P.F.U. Count [2, 63]: 0 | P.F.U. Count [2, 64]: 0 | P.F.U. Count [2, 65]: 0 | P.F.U. Count [2, 66]: 1.0 × 10^4 | P.F.U. Count [2, 67]: 2.3 × 10^3 | P.F.U. Count [2, 68]: 4.0 × 10^4
